Molecular target: BRD4 (Homo sapiens, UniProt O60885)
Assay: Time resolved fluorescence resonance energy transfer (TR-FRET) binding assay, bromodomain BRD4
Details: one of the FRET assays described; read-out: FRET BRD4 IC50

[2H]C([2H])([2H])c1nnn(C)c1-c1cnc2c3c(O)ncc(S(C)(=O)=O)c3n([C@H](c3ccccc3)C3CCC(F)(F)CC3)c2c1 [Example 92, 8-[(S)-(4,4-Difluorocyclohexyl)(phenyl)methyl]-10-methanesulfonyl-5-[4-(^2H3)methyl-1-methyl-1H-1,2,3-triazol-5-yl]-3,8,12-triazatricyclo[7.4.0.0^2,^7]trideca-1(13),2(7),3,5,9,11-hexaen-13-ol] and [2H]C([2H])([2H])c1nnn(C)c1-c1cnc2c3c(OC4COC4)ncc(S(C)(=O)=O)c3n([C@H](c3ccccc3)C3CCOCC3)c2c1 [Example 111, 10-Methanesulfonyl-5-[4-(^2H3)methyl-1-methyl-1H-1,2,3-triazol-5-yl]-8-[(S)-oxan-4-yl(phenyl)methyl]-13-(oxetan-3-yloxy)-3,8,12-triazatricyclo[7.4.0.0^2,^7]trideca-1(13),2(7),3,5,9,11-hexaene] cannot be ordered by IC50: less than 10 nM for the first, less than 10 nM for the second.

[2H]C([2H])([2H])c1nnn(C)c1-c1cnc2c3c(OC)ncc(S(C)(=O)=O)c3n(C(c3cccc(F)c3)C3CCOCC3)c2c1 (single isomer, unassigned) [Example 86, 8-[(3-Fluorophenyl)(oxan-4-yl)methyl]-10-methanesulfonyl-13-methoxy-5-[4-(^2H3)methyl-1-methyl-1H-1,2,3-triazol-5-yl]-3,8,12-triazatricyclo[7.4.0.0^2,^7]trideca-1(13),2(7),3,5,9,11-hexaene] and [2H]C([2H])([2H])c1nnn(C)c1-c1cnc2c3c(OCC)ncc(S(C)(=O)=O)c3n(C(c3ncccc3F)C3CCC(F)(F)CC3)c2c1 (stereo not drawn) [Example 75, 8-[(4,4-Difluorocyclohexyl)(3-fluoropyridin-2-yl)methyl]-13-ethoxy-10-methanesulfonyl-5-[4-(^2H3)methyl-1-methyl-1H-1,2,3-triazol-5-yl]-3,8,12-triazatricyclo[7.4.0.0^2,^7]trideca-1(13),2(7),3,5,9,11-hexaene] cannot be ordered by IC50: less than 10 nM for the first, less than 1500 nM for the second.

[2H]C([2H])([2H])c1nnn(C)c1-c1cnc2c3ccc(N4CC(=O)NC(=O)C4)nc3n([C@H](c3ccccc3)C3CCOCC3)c2c1 [Example 212, 4-{5-[4-(^2H3)Methyl-1-methyl-1H-1,2,3-triazol-5-yl]-8-[(S)-oxan-4-yl(phenyl)methyl]-3,8,10-triazatricyclo[7.4.0.0^2,^7]trideca-1(9),2(7),3,5,10,12-hexaen-11-yl}piperazine-2,6-dione] and [2H]C([2H])([2H])c1nnn(C)c1-c1cnc2c3ccc(-c4ccc(C(C)(C)O)s4)nc3n([C@H](c3ccccc3)C3CCOCC3)c2c1 [Example 176, 2-(5-{5-[4-(^2H3)Methyl-1-methyl-1H-1,2,3-triazol-5-yl]-8-[(S)-oxan-4-yl(phenyl)methyl]-3,8,10-triazatricyclo[7.4.0.0^2,^7]trideca-1(9),2(7),3,5,10,12-hexaen-11-yl}thiophen-2-yl)propan-2-ol] cannot be ordered by IC50: less than 10 nM for the first, less than 10 nM for the second.

Cc1nnn(C)c1-c1cnc2c3ccc(NCCP(=O)(O)O)nc3n([C@H](c3ccccc3)C3CCOCC3)c2c1 [Example 219, (2-{[5-(Dimethyl-1H-1,2,3-triazol-5-yl)-8-[(S)-oxan-4-yl(phenyl)methyl]-3,8,10-triazatricyclo[7.4.0.0^2,^7]trideca-1(9),2(7),3,5,10,12-hexaen-11-yl]amino}ethyl)phosphonic acid] and CCOP(=O)(O)CCNc1ccc2c3ncc(-c4c(C)nnn4C)cc3n([C@H](c3ccccc3)C3CCOCC3)c2n1 [Example 220, (2-{[5-(Dimethyl-1H-1,2,3-triazol-5-yl)-8-[(S)-oxan-4-yl(phenyl)methyl]-3,8,10-triazatricyclo[7.4.0.0^2,^7]trideca-1(9),2(7),3,5,10,12-hexaen-11-yl]amino}ethyl)(ethoxy)phosphinic acid] cannot be ordered by IC50: less than 1 nM for the first, less than 1 nM for the second.

Cc1noc(C)c1-c1cnc2c3c(OCC4CC4)ncc(S(C)(=O)=O)c3n([C@H](c3ccccc3)C3CCOCC3)c2c1 [Example 103, 13-(Cyclopropylmethoxy)-5-(dimethyl-1,2-oxazol-4-yl)-10-methanesulfonyl-8-[(S)-oxan-4-yl(phenyl)methyl]-3,8,12-triazatricyclo[7.4.0.0^2,^7]trideca-1(13),2(7),3,5,9,11-hexaene] and CNS(=O)(=O)c1ccc2c3ncc(-c4c(C)nnn4C)cc3n([C@H](c3ccccc3)C3CCOCC3)c2n1 [Example 199, 5-(Dimethyl-1H-1,2,3-triazol-5-yl)-N-methyl-8-[(S)-oxan-4-yl(phenyl)methyl]-3,8,10-triazatricyclo[7.4.0.0^2,^7]trideca-1(9),2(7),3,5,10,12-hexaene-11-sulfonamide] cannot be ordered by IC50: less than 10 nM for the first, less than 10 nM for the second.

Cc1nnn(C)c1-c1cnc2c3ccc(NC(=O)C(C)(C)C)nc3n([C@H](c3ccccc3)C3CCOCC3)c2c1 [Example 207, N-[5-(Dimethyl-1H-1,2,3-triazol-5-yl)-8-[(S)-oxan-4-yl(phenyl)methyl]-3,8,10-triazatricyclo[7.4.0.0^2,^7]trideca-1(9),2(7),3,5,10,12-hexaen-11-yl]-2,2-dimethylpropanamide] and Cc1nnn(C)c1-c1cnc2c3cnc(C(C)(C)O)cc3n([C@H](c3ccccc3)C3CCOCC3)c2c1 [Example 285, 2-[5-(Dimethyl-1H-1,2,3-triazol-5-yl)-8-[(S)-oxan-4-yl(phenyl)methyl]-3,8,12-triazatricyclo[7.4.0.0^2,^7]trideca-1(9),2(7),3,5,10,12-hexaen-11-yl]propan-2-ol] cannot be ordered by IC50: less than 10 nM for the first, less than 1 nM for the second.

[2H]C([2H])([2H])c1nnn(C)c1-c1cnc2c3ccc(-c4c(C([2H])([2H])[2H])nnn4C)nc3n([C@@H](c3ccccc3)C3CCOCC3)c2c1 [Example 165, 5,11-Bis[4-(^2H3)methyl-1-methyl-1H-1,2,3-triazol-5-yl]-8-[(R)-oxan-4-yl(phenyl)methyl]-3,8,10-triazatricyclo[7.4.0.0^2,^7]trideca-1(9),2(7),3,5,10,12-hexaene] and [2H]C([2H])([2H])c1nnn(C)c1-c1cnc2c3ccc(-c4c(C([2H])([2H])[2H])nnn4C)nc3n([C@H](c3ccccc3F)C3CCOCC3)c2c1 [Example 232, 8-[(S)-(2-Fluorophenyl)(oxan-4-yl)methyl]-5,11-bis[4-(^2H3)methyl-1-methyl-1H-1,2,3-triazol-5-yl]-3,8,10-triazatricyclo[7.4.0.0^2,^7]trideca-1(13),2(7),3,5,9,11-hexaene] cannot be ordered by IC50: less than 10 nM for the first, less than 10 nM for the second.

[2H]C([2H])([2H])c1nnn(C)c1-c1cnc2c3c(NCC(F)(F)F)cncc3n(C(c3ncccc3F)C3CCOCC3)c2c1 (stereo not drawn) [Example 304, 8-[(3-Fluoropyridin-2-yl)(oxan-4-yl)methyl]-5-[4-(^2H3)methyl-1-methyl-1H-1,2,3-triazol-5-yl]-N-(2,2,2-trifluoroethyl)-3,8,11-triazatricyclo[7.4.0.0^2,^7]trideca-1(9),2(7),3,5,10,12-hexaen-13-amine] and Cc1nnn(C)c1-c1cnc2c3cnc(Cl)cc3n(C(c3ncccc3F)C3CCOCC3)c2c1 (stereo not drawn) [Example 316] cannot be ordered by IC50: less than 10 nM for the first, less than 10 nM for the second.

Cc1nnn(C)c1-c1cnc2c3cnc(Cl)cc3n([C@H](c3ccc(F)cc3)C3CCOCC3)c2c1 [Example 322] and Cc1cnn(C)c1-c1ccc2c3ncc(-c4c(C)nnn4C)cc3n([C@H](c3ccccc3)C3CCOCC3)c2n1 [Example 148, 5-(Dimethyl-1H-1,2,3-triazol-5-yl)-11-(1,4-dimethyl-1H-pyrazol-5-yl)-8-[(S)-oxan-4-yl(phenyl)methyl]-3,8,10-triazatricyclo[7.4.0.0^2,^7]trideca-1(13),2(7),3,5,9,11-hexaene] cannot be ordered by IC50: less than 10 nM for the first, less than 10 nM for the second.

— patent US9725449B2, “Tricyclic compounds as anticancer agents” (BRISTOL-MYERS SQUIBB COMPANY, priority 2015, dated 2017)
